Measured values taken from ChEMBL document CHEMBL5365419, “Identification of a Protein Arginine Methyltransferase 7 (PRMT7)/Protein Arginine Methyltransferase 9 (PRMT9) Inhibitor” (J Med Chem, 2023).
Active and inactive are the calls of the source. No cut-off for these calls is given here.

Legend:
[1] = target: T1, Protein arginine N-methyltransferase 9 (Homo sapiens) (UniProt Q6P2P2); assay: Inhibition of human recombinant PRMT9 using biotinylated SF3B2(500 to 519 residues) as substrate and SAM as cosubstrate pre-incubated with compound for 30 mins followed by substrate addition measured after 60 mins by AlphaLISA assay; conditions: time 90.0 min
T1 sequence (whole entry): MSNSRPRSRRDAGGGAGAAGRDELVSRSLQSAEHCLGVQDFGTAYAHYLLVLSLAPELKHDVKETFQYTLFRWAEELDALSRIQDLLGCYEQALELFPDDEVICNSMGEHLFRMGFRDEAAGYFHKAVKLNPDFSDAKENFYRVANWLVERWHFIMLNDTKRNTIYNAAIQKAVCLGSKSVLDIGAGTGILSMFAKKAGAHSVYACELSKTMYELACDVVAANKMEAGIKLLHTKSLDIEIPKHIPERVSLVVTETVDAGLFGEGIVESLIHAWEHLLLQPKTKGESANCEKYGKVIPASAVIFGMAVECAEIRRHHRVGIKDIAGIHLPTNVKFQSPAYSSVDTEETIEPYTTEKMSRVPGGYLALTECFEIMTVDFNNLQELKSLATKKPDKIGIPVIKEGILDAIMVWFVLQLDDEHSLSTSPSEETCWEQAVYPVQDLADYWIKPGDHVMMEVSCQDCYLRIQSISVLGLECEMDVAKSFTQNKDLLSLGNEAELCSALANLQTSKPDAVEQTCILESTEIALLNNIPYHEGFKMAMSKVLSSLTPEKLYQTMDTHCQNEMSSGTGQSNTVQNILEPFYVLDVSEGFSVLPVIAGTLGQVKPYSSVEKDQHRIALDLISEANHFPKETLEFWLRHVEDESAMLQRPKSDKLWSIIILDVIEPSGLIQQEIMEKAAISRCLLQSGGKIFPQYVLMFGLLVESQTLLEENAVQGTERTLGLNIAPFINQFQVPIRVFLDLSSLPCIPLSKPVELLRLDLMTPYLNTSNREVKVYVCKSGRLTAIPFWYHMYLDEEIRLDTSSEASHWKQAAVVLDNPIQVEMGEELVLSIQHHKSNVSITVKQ

[2] = target: T1, Protein arginine N-methyltransferase 9 (Homo sapiens); assay: Inhibition of human GST-fused PRMT9 expressed in Escherichia coli at 100 uM using human GST-SF3B2 (401 to 550 residues) peptide as substrate and human histone H2B as cosubstrate incubated under 37 degreeC in presence of 3H-SAM by SDS-PAGE based densitometric analysis
Caenorhabditis elegans [3] = assay: (§1) Inhibition of Caenorhabditis elegans GST-fused PRMT7 expressed in Escherichia coli at 250 uM using Caenorhabditis elegans GST-SFTB-2 (99 to 248 residues) peptide as substrate and human histone H2B as cosubstrate incubated under 15 degreeC in presence of 3H-SAM by SDS-PAGE based densitometric analysis relative to control
[4] = target: T1, Protein arginine N-methyltransferase 9 (Homo sapiens); assay: Inhibition of PRMT9 catalysed SF3B2 R508 methylation in human MCF7 cells upto 100 uM measured after 72 hrs by immunoblotting analysis; type: cell-based
Caenorhabditis elegans [5] = assay: as §1, with “100” for “250”, “analysis” for “analysis relative to control”
Caenorhabditis elegans [6] = assay: as §1, with “PRMT9” for “PRMT7”, “25 to 50” for “250”, “GST-SFTB2” for “GST-SFTB-2”, “25” for “15”; conditions: dose 25-50 µM
[7] = target: T1, Protein arginine N-methyltransferase 9 (Homo sapiens); assay: Inhibition of human GST-fused PRMT9 expressed in Escherichia coli using human GST-SF3B2 (401 to 550 residues) peptide as substrate and human histone H2B as cosubstrate under 37 degreeC in presence of 3H-SAM by SDS-PAGE based densitometric analysis; conditions: dose 5-100 µM
[8] = target: T1, Protein arginine N-methyltransferase 9 (Homo sapiens); assay: Inhibition of human GST-fused PRMT9 expressed in Escherichia coli at less than 5 uM using human GST-SF3B2 (401 to 550 residues) peptide as substrate and human histone H2B as cosubstrate incubated under 37 degreeC in presence of 3H-SAM by SDS-PAGE based densitometric analysis relative to control
[9] = target: T1, Protein arginine N-methyltransferase 9 (Homo sapiens); assay: Inhibition of PRMT9 catalysed SF3B2 R508 methylation in human MDA-MB-436 cells upto 100 uM measured after 72 hrs by immunoblotting analysis; type: cell-based
Caenorhabditis elegans [10] = assay: as §1, with “PRMT9” for “PRMT7”, “100” for “250”, “GST-SFTB2” for “GST-SFTB-2”, “25” for “15”
[11] = target: T1, Protein arginine N-methyltransferase 9 (Homo sapiens); assay: Inhibition of human GST-fused PRMT9 expressed in Escherichia coli at 100 uM using human GST-SF3B2 (401 to 550 residues) peptide as substrate and human histone H2B as cosubstrate incubated under 37 degreeC in presence of 3H-SAM by SDS-PAGE based densitometric analysis relative to control
[12] = target: T2, Protein arginine N-methyltransferase 7 (Homo sapiens) (UniProt Q9NVM4); assay: Inhibition of human GST-fused PRMT7 expressed in Escherichia coli at 100 uM using human GST-SF3B2 (401 to 550 residues) peptide as substrate and human histone H2B as cosubstrate incubated under 15 degreeC in presence of 3H-SAM by SDS-PAGE based densitometric analysis
T2 sequence (whole entry): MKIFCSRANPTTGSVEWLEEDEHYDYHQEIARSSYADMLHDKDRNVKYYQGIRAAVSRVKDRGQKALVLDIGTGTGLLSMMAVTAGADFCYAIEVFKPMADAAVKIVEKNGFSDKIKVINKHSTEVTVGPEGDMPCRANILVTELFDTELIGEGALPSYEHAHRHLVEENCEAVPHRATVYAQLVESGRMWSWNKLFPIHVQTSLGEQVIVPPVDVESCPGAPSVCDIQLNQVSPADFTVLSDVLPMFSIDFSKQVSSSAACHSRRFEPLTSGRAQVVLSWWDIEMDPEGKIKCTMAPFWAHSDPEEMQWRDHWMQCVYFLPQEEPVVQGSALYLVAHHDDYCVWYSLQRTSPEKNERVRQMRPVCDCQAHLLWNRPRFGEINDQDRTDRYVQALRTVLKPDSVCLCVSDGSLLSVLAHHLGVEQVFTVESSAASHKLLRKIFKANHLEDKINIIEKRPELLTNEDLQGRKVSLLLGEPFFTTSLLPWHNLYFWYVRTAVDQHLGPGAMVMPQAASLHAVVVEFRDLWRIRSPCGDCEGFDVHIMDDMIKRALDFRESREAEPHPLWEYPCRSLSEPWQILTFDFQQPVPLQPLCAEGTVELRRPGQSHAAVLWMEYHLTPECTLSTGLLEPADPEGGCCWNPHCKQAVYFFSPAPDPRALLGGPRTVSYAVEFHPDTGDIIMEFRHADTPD

[13] = Selectivity ratio of human GST-fused PRMT9 to Caenorhabditis elegans GST-fused PRMT9

For `COC(=O)c1cc(O)c2cc(NC(=O)Nc3ccc4cc(C(=O)OC)cc(O)c4c3)ccc2c1`, the inhibition [1] was “inactive”.
With `CSC[C@H]1O[C@@H](n2cnc3c(N)ncnc32)[C@H](O)[C@@H]1O` the inhibition [2] was “Active”.
In the case of `O=C(CC(=O)Nc1ccc2[nH]cc(C(=O)O)c2c1)Nc1ccc2[nH]cc(C(=O)O)c2c1`, the inhibition [1] is reported as “inactive”.
With `COC(=O)c1c[nH]c2ccc(NC(=O)CC(=O)Nc3ccc4[nH]cc(C(=O)OC)c4c3)cc12` the inhibition [1] was “inactive”.
With `COC(=O)c1cc(O)c2cc(NC(=O)NCCCNC(=N)NC[C@H]3O[C@@H](n4cnc5c(N)ncnc54)[C@H](O)[C@@H]3O)ccc2c1` the inhibition (Caenorhabditis elegans [3]) was 50%, the inhibition [4] was “inactive” and the inhibition (Caenorhabditis elegans [5]) was “inactive”. The inhibition (Caenorhabditis elegans [6]) was 50%, the inhibition [7] was “Dose-Dependent Effect” and the inhibition [8] was 50%. The inhibition [9] was “inactive”, the inhibition (Caenorhabditis elegans [10]) was 100% and the inhibition [11] was 100%.
With `COC(=O)c1cc(O)c2cc(NC(=O)NCCCCCNC(=N)NC[C@H]3O[C@@H](n4cnc5c(N)ncnc54)[C@H](O)[C@@H]3O)ccc2c1` the inhibition [4] was “inactive”, the inhibition [12] was “Active” and the inhibition (Caenorhabditis elegans [5]) was “inactive”. For the same compound, the inhibition [7] was “Dose-Dependent Effect”, the inhibition [9] was “inactive” and the Selectivity ratio [13] was 5. It also gave an inhibition (Caenorhabditis elegans [10]) of 100% and an inhibition [11] of 100%.
For `O=C(Nc1ccc2[nH]cc(C(=O)O)c2c1)Nc1ccc2[nH]cc(C(=O)O)c2c1`, the inhibition [1] was “inactive”.
In the case of `O=C(Nc1ccc2cc(C(=O)O)cc(O)c2c1)Nc1ccc2cc(C(=O)O)cc(O)c2c1`, the inhibition [1] is reported as “inactive”.
In the case of `COC(=O)c1cc(O)c2cc(NC(=O)NCCCCNC(=N)NC[C@H]3O[C@@H](n4cnc5c(N)ncnc54)[C@H](O)[C@@H]3O)ccc2c1`, the inhibition (Caenorhabditis elegans [3]) is reported as 50%, the inhibition [12] is reported as “Active” and the inhibition (Caenorhabditis elegans [5]) is reported as “inactive”. The inhibition (Caenorhabditis elegans [6]) was 50%, the inhibition [7] was “Dose-Dependent Effect” and the inhibition [8] was 50%. The inhibition (Caenorhabditis elegans [10]) was 100% and the inhibition [11] was 100%.
In the case of `COC(=O)c1cc(O)c2cc(NC(=O)NCCCCCCCNC(=N)NC[C@H]3O[C@@H](n4cnc5c(N)ncnc54)[C@H](O)[C@@H]3O)ccc2c1`, the inhibition [4] is reported as “inactive” and the inhibition [9] is reported as “inactive”.
In the case of `COC(=O)c1cc(O)c2cc(NC(=O)NCCCCNC(=N)NCC[C@H]3O[C@@H](n4cnc5c(N)ncnc54)[C@H](O)[C@@H]3O)ccc2c1`, the inhibition [4] is reported as “inactive” and the inhibition [9] is reported as “inactive”.
In the case of `CCOC(=O)c1cc2cc(NC(=O)CNC(=O)Nc3ccc([N+](=O)[O-])cc3)ccc2[nH]1`, the inhibition [1] is reported as “inactive”.
